Test results taken from PubChem BioAssay (NCI).
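Values below derive from 48-hour exposures of cells grown in 96-well plates, with endpoints linearly interpolated between the two concentrations bracketing the appropriate inhibition level. TGI denotes the concentration required for complete inhibition of growth.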

Tests used:
Assay in all cases: NCI tumour cell line growth inhibition, 48 h
786-0 renal = system: 786-0 renal
A498 renal = system: A498 renal
A549 NSCLC = system: A549 NSCLC
ACHN renal = system: ACHN renal
BT-549 breast = system: BT-549 breast
CAKI-1 renal = system: CAKI-1 renal
CCRF-CEM leukemia = system: CCRF-CEM leukemia
COLO 205 colon = system: COLO 205 colon
DU-145 prostate = system: DU-145 prostate
EKVX NSCLC = system: EKVX NSCLC
HCC-2998 colon = system: HCC-2998 colon
HCT-116 colon = system: HCT-116 colon
HCT-15 colon = system: HCT-15 colon
HL-60(TB) leukemia = system: HL-60(TB) leukemia
HOP-62 NSCLC = system: HOP-62 NSCLC
HOP-92 NSCLC = system: HOP-92 NSCLC
HS 578T breast = system: HS 578T breast
HT29 colon = system: HT29 colon
IGROV1 ovarian = system: IGROV1 ovarian
K-562 leukemia = system: K-562 leukemia
KM12 colon = system: KM12 colon
LOX IMVI melanoma = system: LOX IMVI melanoma
M14 melanoma = system: M14 melanoma
MALME-3M melanoma = system: MALME-3M melanoma
MCF7 breast = system: MCF7 breast
MDA-MB-231 breast = system: MDA-MB-231 breast
MDA-MB-435 = system: MDA-MB-435
MDA-N = system: MDA-N
MOLT-4 leukemia = system: MOLT-4 leukemia
NCI-H226 lung = system: NCI-H226 lung
NCI-H23 lung = system: NCI-H23 lung
NCI-H460 lung = system: NCI-H460 lung
NCI-H522 lung = system: NCI-H522 lung
OVCAR-3 ovarian = system: OVCAR-3 ovarian
OVCAR-4 ovarian = system: OVCAR-4 ovarian
OVCAR-5 ovarian = system: OVCAR-5 ovarian
OVCAR-8 ovarian = system: OVCAR-8 ovarian
PC-3 prostate = system: PC-3 prostate
RPMI-8226 leukemia = system: RPMI-8226 leukemia
RXF 393 renal = system: RXF 393 renal
SF-268 CNS = system: SF-268 CNS
SF-295 CNS = system: SF-295 CNS
SF-539 CNS = system: SF-539 CNS
SK-MEL-2 melanoma = system: SK-MEL-2 melanoma
SK-MEL-28 melanoma = system: SK-MEL-28 melanoma
SK-MEL-5 melanoma = system: SK-MEL-5 melanoma
SK-OV-3 ovarian = system: SK-OV-3 ovarian
SN12C renal = system: SN12C renal
SNB-19 CNS = system: SNB-19 CNS
SNB-75 CNS = system: SNB-75 CNS
SR leukemia = system: SR leukemia
SW-620 colon = system: SW-620 colon
T-47D breast = system: T-47D breast
TK-10 renal = system: TK-10 renal
U251 CNS = system: U251 CNS
UACC-257 melanoma = system: UACC-257 melanoma
UACC-62 melanoma = system: UACC-62 melanoma
UO-31 renal = system: UO-31 renal
NCI/ADR-RES ovarian = system: NCI/ADR-RES ovarian

CC(=O)OCC12C(OC(C)=O)C(=O)C3C(OC(C)=O)C14OC3(C)COC(=O)c1cccnc1C(C)C(C)C(=O)OC(C(OC(C)=O)C2OC(C)=O)C4(C)O (centres undefined)
TGI (786-0 renal): > 100 µM
TGI (A498 renal): > 100 µM
TGI (A549 NSCLC): > 100 µM
TGI (ACHN renal): > 100 µM
TGI (BT-549 breast): > 100 µM
TGI (CAKI-1 renal): > 100 µM
TGI (CCRF-CEM leukemia): > 100 µM
TGI (COLO 205 colon): > 100 µM
TGI (DU-145 prostate): > 100 µM
TGI (EKVX NSCLC): > 100 µM
TGI (HCC-2998 colon): > 100 µM
TGI (HCT-116 colon): > 100 µM
TGI (HCT-15 colon): > 100 µM
TGI (HL-60(TB) leukemia): > 100 µM
TGI (HOP-62 NSCLC): > 100 µM
TGI (HOP-92 NSCLC): > 100 µM
TGI (HS 578T breast): > 100 µM
TGI (HT29 colon): > 100 µM
TGI (IGROV1 ovarian): > 100 µM
TGI (K-562 leukemia): > 100 µM
TGI (KM12 colon): > 100 µM
TGI (LOX IMVI melanoma): > 100 µM
TGI (M14 melanoma): > 100 µM
TGI (MALME-3M melanoma): > 100 µM
TGI (MCF7 breast): > 100 µM
TGI (MDA-MB-231 breast): > 100 µM
TGI (MDA-MB-435): > 100 µM
TGI (MDA-N): > 100 µM
TGI (MOLT-4 leukemia): > 100 µM
TGI (NCI-H226 lung): > 100 µM
TGI (NCI-H23 lung): > 100 µM
TGI (NCI-H460 lung): > 100 µM
TGI (NCI-H522 lung): > 100 µM
TGI (OVCAR-3 ovarian): > 100 µM
TGI (OVCAR-4 ovarian): > 100 µM
TGI (OVCAR-5 ovarian): > 100 µM
TGI (OVCAR-8 ovarian): > 100 µM
TGI (PC-3 prostate): > 100 µM
TGI (RPMI-8226 leukemia): > 100 µM
TGI (RXF 393 renal): > 100 µM
TGI (SF-268 CNS): > 100 µM
TGI (SF-295 CNS): > 100 µM
TGI (SF-539 CNS): > 100 µM
TGI (SK-MEL-2 melanoma): > 100 µM
TGI (SK-MEL-28 melanoma): > 100 µM
TGI (SK-MEL-5 melanoma): > 100 µM
TGI (SK-OV-3 ovarian): > 100 µM
TGI (SN12C renal): > 100 µM
TGI (SNB-19 CNS): > 100 µM
TGI (SNB-75 CNS): > 100 µM
TGI (SR leukemia): > 100 µM
TGI (SW-620 colon): > 100 µM
TGI (T-47D breast): > 100 µM
TGI (TK-10 renal): > 100 µM
TGI (U251 CNS): > 100 µM
TGI (UACC-257 melanoma): > 100 µM
TGI (UACC-62 melanoma): > 100 µM
TGI (UO-31 renal): > 100 µM

COc1ccc(N2C(=O)C3c4[nH]c5c(C)cccc5c4C4CCC(c5ccccc5)CC4C3C2=O)cc1 (centres undefined)
TGI (786-0 renal): > 100 µM
TGI (A498 renal): 39.1 µM
TGI (A549 NSCLC): 24.2 µM
TGI (ACHN renal): 43.5 µM
TGI (BT-549 breast): 47.8 µM
TGI (CAKI-1 renal): 39.3 µM
TGI (CCRF-CEM leukemia): 4.41 µM
TGI (COLO 205 colon): 83.9 µM
TGI (DU-145 prostate): 31.1 µM
TGI (EKVX NSCLC): 63.4 µM
TGI (HCT-116 colon): > 100 µM
TGI (HCT-15 colon): > 100 µM
TGI (HOP-62 NSCLC): 27.3 µM
TGI (HOP-92 NSCLC): 41 µM
TGI (HS 578T breast): 28.6 µM
TGI (HT29 colon): 21.3 µM
TGI (IGROV1 ovarian): 33.5 µM
TGI (KM12 colon): 42.2 µM
TGI (LOX IMVI melanoma): > 100 µM
TGI (M14 melanoma): 26 µM
TGI (MCF7 breast): 21.7 µM
TGI (MDA-MB-231 breast): 78.2 µM
TGI (MDA-MB-435): 34.3 µM
TGI (MDA-N): 34.3 µM
TGI (NCI-H226 lung): 46.3 µM
TGI (NCI-H23 lung): 67.7 µM
TGI (NCI-H460 lung): 18.2 µM
TGI (NCI-H522 lung): 16.7 µM
TGI (NCI/ADR-RES ovarian): 66.4 µM
TGI (OVCAR-3 ovarian): 60.4 µM
TGI (OVCAR-4 ovarian): 26.6 µM
TGI (OVCAR-5 ovarian): 28.8 µM
TGI (OVCAR-8 ovarian): 36.8 µM
TGI (PC-3 prostate): 28.2 µM
TGI (RPMI-8226 leukemia): 30.4 µM
TGI (SF-268 CNS): 20.3 µM
TGI (SF-295 CNS): 40.2 µM
TGI (SK-MEL-2 melanoma): 60.8 µM
TGI (SK-MEL-28 melanoma): 27.9 µM
TGI (SK-OV-3 ovarian): 34 µM
TGI (SN12C renal): 59.5 µM
TGI (SNB-19 CNS): 76.3 µM
TGI (SNB-75 CNS): 24.4 µM
TGI (SW-620 colon): 40.5 µM
TGI (T-47D breast): 28.6 µM
TGI (TK-10 renal): > 100 µM
TGI (UACC-257 melanoma): 51.2 µM
TGI (UO-31 renal): 43.3 µM

COC(=O)C(C)(C)NC(=O)C(Cc1ccccc1)Nc1ncnc2c1ncn2-c1ccc(OC)cc1 (centres undefined)
TGI (786-0 renal): > 100 µM
TGI (A498 renal): 72.7 µM
TGI (A549 NSCLC): > 100 µM
TGI (ACHN renal): > 100 µM
TGI (BT-549 breast): 98.6 µM
TGI (CAKI-1 renal): > 100 µM
TGI (CCRF-CEM leukemia): 35.8 µM
TGI (COLO 205 colon): > 100 µM
TGI (DU-145 prostate): > 100 µM
TGI (EKVX NSCLC): 45.6 µM
TGI (HCC-2998 colon): > 100 µM
TGI (HCT-116 colon): > 100 µM
TGI (HCT-15 colon): > 100 µM
TGI (HOP-62 NSCLC): > 100 µM
TGI (HOP-92 NSCLC): 58.2 µM
TGI (HS 578T breast): 79.8 µM
TGI (HT29 colon): 46.6 µM
TGI (IGROV1 ovarian): > 100 µM
TGI (K-562 leukemia): > 100 µM
TGI (KM12 colon): 96.7 µM
TGI (LOX IMVI melanoma): > 100 µM
TGI (M14 melanoma): > 100 µM
TGI (MCF7 breast): 72.4 µM
TGI (MDA-MB-231 breast): > 100 µM
TGI (MDA-MB-435): 32 µM
TGI (MDA-N): 43.9 µM
TGI (NCI-H226 lung): > 100 µM
TGI (NCI-H23 lung): > 100 µM
TGI (NCI-H460 lung): 73.5 µM
TGI (NCI-H522 lung): 34.2 µM
TGI (NCI/ADR-RES ovarian): > 100 µM
TGI (OVCAR-3 ovarian): > 100 µM
TGI (OVCAR-4 ovarian): > 100 µM
TGI (OVCAR-5 ovarian): > 100 µM
TGI (OVCAR-8 ovarian): > 100 µM
TGI (PC-3 prostate): > 100 µM
TGI (RPMI-8226 leukemia): > 100 µM
TGI (SF-268 CNS): > 100 µM
TGI (SF-295 CNS): > 100 µM
TGI (SK-MEL-2 melanoma): > 100 µM
TGI (SK-MEL-28 melanoma): > 100 µM
TGI (SK-MEL-5 melanoma): > 100 µM
TGI (SK-OV-3 ovarian): > 100 µM
TGI (SN12C renal): > 100 µM
TGI (SNB-19 CNS): > 100 µM
TGI (SNB-75 CNS): 69.1 µM
TGI (SW-620 colon): 54.1 µM
TGI (T-47D breast): 58.2 µM
TGI (TK-10 renal): > 100 µM
TGI (U251 CNS): > 100 µM
TGI (UACC-257 melanoma): > 100 µM
TGI (UACC-62 melanoma): > 100 µM
TGI (UO-31 renal): > 100 µM
